Test results: patent US10053485B2, “Cytotoxic agents that preferentially target leukemia inhibitory factor (LIF) for the treatment of malignancies and as new contraceptive agents” (Evestra, Inc., priority 2015, dated 2018)
Read-outs that look alike come from different tables or passages of the source.

Columns and labels:
[1] = system: IGROV-1 (Ovarian cancer cells); assay: Short term (72 h) cytotoxicity assay; assay type: cell-based; conditions: Homo sapiens; IGROV-1, 72 h cytotoxicity
MDA-MB-231 (TNBC cells) = assay: Short term (72 h) cytotoxicity assay; assay type: cell-based; conditions: Homo sapiens; MDA-MB-231, 72 h cytotoxicity
U87-MU (Glioma cells) = assay: Short term (72 h) cytotoxicity assay; assay type: cell-based
[2] = system: unmodified MCF-7 human breast cancer cells; assay: LIF specificity assay, unmodified cells; assay type: cell-based
[3] = system: LIF-overexpressing MCF-7 (MCF-7 LIF) human breast cancer cells; assay: LIF specificity assay, LIF-overexpressing cells; assay type: cell-based
U251 (Glioma) = assay: Short term (72 h) cytotoxicity assay; assay type: cell-based, human; conditions: U251, 72 h cytotoxicity
A549 (Lung cancer) = assay: Short term (72 h) cytotoxicity assay; assay type: cell-based, human; conditions: A549, 72 h cytotoxicity
[4] = system: T47D (ER+ PR+ Breast Cancer); assay: Short term (72 h) cytotoxicity assay; assay type: cell-based; conditions: Homo sapiens
[5] = system: MCF-7 (ER+ Breast Cancer); assay: Short term (72 h) cytotoxicity assay; assay type: cell-based; conditions: Homo sapiens, MCF7; MCF-7, 72 h cytotoxicity
[6] = system: PC3 (AR− Prostate Cancer); assay: Short term (72 h) cytotoxicity assay; assay type: cell-based; conditions: Homo sapiens, PC3, 72 h cytotoxicity
LNCaP (AR+ Prostate) = assay: Short term (72 h) cytotoxicity assay; assay type: cell-based
[7] = system: Ishikawa (Endometrial Cancer); assay: Short term (72 h) cytotoxicity assay; assay type: cell-based; conditions: Homo sapiens
[8] = system: various cancer cells lines; assay: Cytotoxicity assays in various cancer cell lines; assay type: cell-based; conditions: in words
Method: Briefly, 5×10^3 cells were seeded in 96-well plates and incubated with compounds (0.0001-10 μmol/L) or dimethyl sulfoxide (DMSO; 0.02% v/v) for 24, 48, and 72 hours at 37° C. and cell viability was measured using a Fluoroscan plate reader.

T47D breast cancer cells = assay: Soft agar colony formation assay; assay type: cell-based, human
Method: Colonies of cancer cells formed in soft agar in the presence and absence of the testing compounds is a standard assay to interpret in-vitro tumorigenic potential in the basal layer. Agar was prepared by mixing 1% DNA grade agar melted and cooled to 40° C. with an equal volume of (2×) Dulbecco's Modified Eagle's Medium (DMEM) to obtain 0.5% agar that was dispersed in a 6-well plate and allowed to solidify. A total of 0.6% agar was prepared in RPMI medium and mixed together with T47D cells (0.5×10^6 cells/mL) and immediately plated on the basal layer in the presence or absence of testing compounds. The cultures were incubated at 37° C. in a CO2 incubator for 2 weeks, and colonies were stained with 0.005% crystal violet and observed under a light microscope.

[9] = system: human umbilical vein endothelial cells (HUVEC); assay: Matrigel in vitro HUVECs tube formation assay (angiogenesis); assay type: cell-based; conditions: 1 μM concentration, all measured time points
Method: Matrigel in vitro HUVECs tube formation assay: The tube formation assay was performed using 12-well plate coated with 100 μL Matrigel basement membrane matrix (BD Bioscience) per well and polymerized at 37° C. for 30 min. Human umbilical vascular endothelial cells (HUVECs) suspended in M199 medium containing 2% FBS were plated on the Matrigel at a density of 2×10^5 cells/well. […] After 8 h, the Matrigel-induced morphological changes were photographed and the extent of capillary tube formation was evaluated by measuring the total tube length per field.

[10] = system: human endometrial stromal cells (HESC); assay: Decidualization assay, actin cytoskeleton by phalloidin staining; assay type: cell-based; conditions: FIG. 3
Method: Decidualization studies: The above compounds were investigated originally for the treatment of endometriosis. The compounds were tested in a decidualization assay using human endometrial stromal fibroblast (HESC) cells. In preparation for the possibility of embryonic attachment, the stromal cells in the endometrium undergo extensive waves of proliferation, remodeling, and terminal differentiation that transforms the endometrium into an endocrine gland, called decidua. This transformation is called decidualization and it is under the control by ovarian hormones.
The level of apoptosis increases from the proliferative phase through menstrual cycle and peaks at menses. […] However if the cells are subjected to conditions that induce decidualization, stromal cells will begin to differentiate instead of undergoing apoptosis.
Briefly, human stromal endometrial cells were plated in the presence and absence of progesterone and allow undergoing decidualization. The cells treated with test compounds of different concentrations and stained for actin cytocketal morphology using phalloidin staining and monitored under fluorescent microscope.

[11] = system: MDM2 / P53 in MCF-7 cells; assay: P53 / MDM2 levels in MCF-7 cells (FIG. 5); assay type: cell-based, human
[12] = system: Patient derived tumor (melanoma): p53, LIF, MDM2, pSTAT3, Ki67; assay: Immunohistochemistry analysis of patient derived tumor; assay type: cell-based, human; conditions: 10 nM and 1 uM for 5 days, FIG. 10
Method: Patient derived tumor (melanoma) was treated with the compounds at 10 nM and 1 uM for 5 days in RPMI medium and harvested on day 6 using established protocol and immunohistochemistry was performed for different antibodies including p53, LIF, MDM2, pSTAT3, Ki67.

[13] = Homo sapiens, MCF7, cytotoxicity
[14] = Homo sapiens, MCF7, cytotoxicity, LIF-overexpressing MCF-7, read-out: MCF-7 LIF IC50

C#CC(F)(F)[C@]1(O)CCC2C3CCC4=CC(=O)CCC4=C3C(c3ccc(C(=C)C)cc3)C[C@@]21C (stereo partly drawn) [EC358, 17α-(1,1-difluoro-2-propyn-1-yl)-17β-hydroxy-11β-[4-p-(1-methylethenyl)phenyl]estra-4,9-dien-3-one]
IC50 [1]: 35 nM | IC50 (MDA-MB-231 (TNBC cells)): 40 nM | IC50 (U87-MU (Glioma cells); Glioma cell): 25 nM | IC50 [2, 13]: 100 nM | IC50 [3, 14]: 50 nM

C#CC(F)(F)[C@]1(O)CCC2C3CCC4=CC(=O)CCC4=C3C(c3ccc(C(C)(C)C)cc3)C[C@@]21C (stereo partly drawn) [EC357, 17α-(1,1-difluoro-2-propyn-1-yl)-17β-hydroxy-11β-[4-p-(t-butyl)phenyl]estra-4,9-dien-3-one]
IC50 (U87-MU (Glioma cells); Glioma cell): 35 nM | IC50 (U251 (Glioma); Homo sapiens, U-251): 30 nM | IC50 (A549 (Lung cancer); Homo sapiens): 35 nM | melting point: 127 to 129 °C

C#CC(F)(F)[C@]1(O)CCC2C3CCC4=CC(=O)CCC4=C3C(c3ccc(C4CCCCC4)cc3)C[C@@]21C (stereo partly drawn) [EC360, 17α-(1,1-difluoro-2-propyn-1-yl)-17β-hydroxy-11β-[4-p-(cyclohexyl)phenyl]estra-4,9-dien-3-one]
IC50 [1]: 22 nM | IC50 (MDA-MB-231 (TNBC cells)): 40 nM | IC50 (U87-MU (Glioma cells); Glioma cell): 73 nM | IC50 [2, 13]: 500 nM | IC50 [3, 14]: 250 nM

C#CC(F)(F)[C@]1(O)CCC2C3CCC4=CC(=O)CCC4=C3C(c3ccc(S(=O)(=O)C4CC4)cc3)C[C@@]21C (stereo partly drawn) [EC361, 17α-(1,1-difluoro-2-propyn-1-yl)-17β-hydroxy-11β-[4-p-(cyclopropylsulfonyl)phenyl]estra-4,9-dien-3-one]
IC50 [1]: 350 nM | IC50 (MDA-MB-231 (TNBC cells)): 750 nM | IC50 (U87-MU (Glioma cells); Glioma cell): 230 nM | IC50 [2, 13]: > 10000 nM | IC50 [3, 14]: 500 nM

C#CC(F)(F)[C@]1(O)CCC2C3CCC4=CC(=O)CCC4=C3C(c3ccc(CCCCCCC)cc3)C[C@@]21C (stereo partly drawn) [EC362, 17α-(1,1-difluoro-2-propyn-1-yl)-17β-hydroxy-11β-[4-p-(n-heptyl)phenyl]estra-4,9-dien-3-one]
IC50 [1]: 7.5 nM | IC50 [4]: 25 nM | IC50 [2, 13]: 50 nM | IC50 [3, 14]: 25 nM

C#CC(F)(F)[C@]1(O)CCC2C3CCC4=CC(=O)CCC4=C3C(c3ccc(-n4ccnc4)cc3)C[C@@]21C (some centres unmarked) [EC351]
IC50 (U251 (Glioma); Homo sapiens, U-251): 500 nM | melting point: 175 to 178 °C

C#CC(F)(F)[C@]1(O)CCC2C3CCC4=CC(=O)CCC4=C3C(c3ccc(N(C)C)cc3)C[C@@]21C (stereo partly drawn) [EC352, 17α-(1,1-difluoro-2-propyn-1-yl)-17β-hydroxy-11β-[4-p-(dimethylamino)phenyl]estra-4,9-dien-3-one]
IC50 (U87-MU (Glioma cells)): 50 nM | IC50 (U251 (Glioma)): 40 nM | IC50 (A549 (Lung cancer)): 45 nM | IC50 ([2]; cytotoxicity): > 10000 nM | Fold Change ([3]; MCF-7 vs. MCF-7 LIF cytotoxicity (specificity towards LIF)): 0 | IC50 ([3]; cytotoxicity, LIF-overexpressing MCF-7, read-out: MCF-7 LIF IC50): > 10000 nM

C#CC(F)(F)[C@]1(O)CC[C@H]2[C@@H]3CCC4=CC(=O)CCC4=C3[C@@H](c3ccc(-c4c(C)cc(C)cc4C)cc3)C[C@@]21C [EC359, 17α-(1,1-difluoro-2-propyn-1-yl)-17β-hydroxy-11β-[4-p-(2,4,6-trimethylphenyl)phenyl]estra-4,9-dien-3-one]
IC50 [1]: 25 nM | IC50 (MDA-MB-231 (TNBC cells)): 30 nM | IC50 (U87-MU (Glioma cells); Glioma cell): 10 nM | IC50 [2, 13]: 240 nM | IC50 ([3]; Homo sapiens, MCF7, read-out: MCF-7 LIF IC50): 30 nM

C#CC(F)(F)[C@]1(O)CCC2C3CCC4=CC(=O)CCC4=C3C(c3ccc(C(C)=O)cc3)C[C@@]21C (stereo partly drawn) [EC332, 17α-(1,1-difluoro-2-propyn-1-yl)-17β-hydroxy-11β-[4-p-(acetyl)phenyl]estra-4,9-dien-3-one]
IC50 (MDA-MB-231 (TNBC cells)): 110 nM | IC50 (U87-MU (Glioma cells); Glioma cell): 90 nM | IC50 (U251 (Glioma); Homo sapiens, U-251): 40 nM | IC50 (A549 (Lung cancer); Homo sapiens): 75 nM | IC50 [4]: 200 nM | IC50 [5]: 45 nM | IC50 [6]: 300 nM | IC50 (LNCaP (AR+ Prostate)): 96 nM | IC50 [7]: 10 nM | IC50's in cytotoxicity assays [8]: low nanomolar | inhibition in the number of colonies formed (T47D breast cancer cells; 100 nM concentration, in words): complete inhibition | inhibition at 0.005 µM (T47D breast cancer cells; Homo sapiens, T47D, 5 nM concentration, read-out: inhibition in the number of colonies formed): 50% | tube formation [9]: complete abrogation | actin / alpha-smooth muscle mediated cytoskeletal disruption of fibroblast [10]: cytoskeletal disruption | P53 levels / MDM2 [11]: restore P53 levels by inhibiting MDM2 | apoptosis, p53, MDM2, LIF mediated STAT3 phosphorylation (immunohistochemistry) [12]: induce apoptosis and restore p53 by inhibiting MDM2 and LIF mediated STAT3 phosphorylation

C#CC(F)(F)[C@]1(O)CCC2C3CCC4=CC(=O)CCC4=C3C(c3ccc(OC)cc3)C[C@@]21C (stereo partly drawn) [EC356, 17α-(1,1-difluoro-2-propyn-1-yl)-17β-hydroxy-11β-[4-p-(methoxy)phenyl]estra-4,9-dien-3-one]
IC50 (U87-MU (Glioma cells); Glioma cell): 45 nM | IC50 (U251 (Glioma); Homo sapiens, U-251): 45 nM | IC50 (A549 (Lung cancer); Homo sapiens): 40 nM | IC50 [2, 13]: 500 nM | IC50 [3, 14]: 250 nM

C#CC(F)(F)[C@]1(O)CCC2C3CCC4=CC(=O)CCC4=C3C(c3ccc(SC)cc3)C[C@@]21C (stereo partly drawn) [EC363, 17α-(1,1-difluoro-2-propyn-1-yl)-17β-hydroxy-11β-[4-p-(methylthio)phenyl]estra-4,9-dien-3-one]
IC50 [1]: 30 nM | IC50 (U87-MU (Glioma cells); Glioma cell): 30 nM
